Experimental data: paper PMC11111691, “Cystine-knot peptide inhibitors of HTRA1 bind to a cryptic pocket within the active site region” (Nature Communications, 2024)
Positions of bridges follow the written chain, without caps; N, C: chain ends. Residues, ends and D or L forms follow the SMILES beside them.

Legend:
[1] = target: T1, HTRA1^FL (Homo sapiens, UniProt Q92743); test: HTRA1^FL enzyme inhibition assay with synthetic substrate H2-OPT; assay type: biochemical
T1 construct: Human full-length HTRA1 (HTRA1^FL, Q23-P480); made in house; host or cells: Trichoplusia ni cells
Experimental: Assays with the fluorescence-quenched synthetic substrate Mca-IRRVSYSFK(Dnp)K (H2-OPT)[38],[60] were carried out essentially as described. CKP stock solutions in DMSO were diluted in TNC buffer (dilution series for IC50 determinations, or final concentration of 2 µM for selectivity assay or as indicated for HTRA1/4 mutants) and incubated with enzymes in 96-well black optical bottom plates for 60 min at 37 °C. For selectivity experiments we used the 7mer-ABP as inhibitor, which was incubated with the proteases for 15 min at 37 °C. A 10 mM stock solution of H2-OPT in DMSO was diluted with water, prewarmed at 37 °C and then added to the CKP-enzyme mixtures. The final concentrations in the reaction mixtures were: 1 nM HTRA1^FL, 3 nM HTRA1^PD/PDZ, 1 nM HTRA1^PD, 1 nM HTRA2^PD/PDZ, 3 nM HTRA3^FL, 60 nM HTRA3^PD/PDZ, 6 nM HTRA4^FL, 1 µM HTRA4^PD/PDZ, 1 nM mouse HTRA1^PD, 25 nM HTRA1^PD-A202Y, 1 µM HTRA4^PD/PDZ-Y200A, 0.5 mM 7mer-ABP, 5 µM H2-OPT, and 0.25% DMSO. The kinetics of substrate cleavage was measured at 37 °C on a SpectraMax M5 microplate reader with excitation of 328 nm and emission of 393 nm. The determined initial rates of cleavage were expressed as percent of control (DMSO control) after subtracting the baseline rates (without enzyme). IC50 values were determined by Sigmoidal 4PL modeling of multiple data points from serial dilutions of CKPs using Prism 9 software (GraphPad). For selectivity assays with HTRA1-4^PD/PDZ constructs, the specific activities of the enzymes and enzyme:CKP inhibitor ratios were as follows: HTRA1^PD/PDZ, 12560 mRFU/min/nM – 1:667; HTRA2^PD/PDZ, 32300 mRFU/min/nM – 1:2000; HTRA3^PD/PDZ, 962 mRFU/min/nM – 1:33; HTRA4^PD/PDZ, 18 mRFU/min/nM – 1:2.

[2] = target: T2, HTRA1^PD(SA) (Homo sapiens, UniProt Q92743, S328A); test: SPR binding kinetics to HTRA1^PD(SA); conditions: mean ± S.D. of three or more independent experiments; for koff / kon: SPR Biacore S200, 25 °C, single cycle kinetics, 1:1 Langmuir model; for Kd: SPR, calculated from kon and koff, CPI up to 10 µM
T2 construct: The protease domains of human HTRA1 (HTRA1^PD; D161-K379); made in house; host or cells: E. coli
Experimental: Surface plasmon resonance (SPR) experiments were performed using a Biacore S200 instrument at 25 °C. His-tagged HTRA proteins were captured on a CM5 sensor chip using the His-capture kit (GE Healthcare). Protein concentrations used for immobilization were as follows; HTRA1^PD(SA), HTRA1^PD and HTRA1^PD-ABP 2 µg/ml with 60-s injections at 10 µl/min, HTRA2^PD/PDZ, HTRA3^PD/PDZ, and HTRA4^PD/PDZ 4 µg/ml with 60-s injections at 10 µl/min. Approximate immobilization levels of HTRA proteins were as follows; HTRA1^PD(SA) 700 RU, HTRA1^PD 900 RU, HTRA1^PD-ABP 900 RU, HTRA2^PD/PDZ 500 RU, HTRA3^PD/PDZ 500 RU, HTRA4^PD/PDZ 500 RU. All CKPs were prepared in HBS-EP buffer (0.01 M HEPES pH 7.4, 0.15 M NaCl, 3 mM EDTA, 0.005% v/v Surfactant P20). All CKP concentrations were injected for 120 s at a flow rate of 30 μl/min. A reference channel was subtracted from the HTRA-captured channel.
Binding kinetics of peptides to HTRA1^PD(SA) were determined by flowing six serial three-fold dilutions of peptide over the HTRA1^PD(SA) immobilized surface using a single cycle kinetics model. CKP maximum concentrations were as follows: 1A7, 1A8, 1C10, 2D5, and 3A7, 300 nM; 1G10-ENI and 1D3-ENI, 100 nM; 3B3, 3000 nM; and CPI, 10,000 nM. Data were analyzed using GE BIA evaluation software using a 1:1 Langmuir binding model. The KD values, calculated from the determined kon and koff values, were the mean ± S.D. of 3–4 independent experiments.

T2 sequence (Q92743 161-379 S328A): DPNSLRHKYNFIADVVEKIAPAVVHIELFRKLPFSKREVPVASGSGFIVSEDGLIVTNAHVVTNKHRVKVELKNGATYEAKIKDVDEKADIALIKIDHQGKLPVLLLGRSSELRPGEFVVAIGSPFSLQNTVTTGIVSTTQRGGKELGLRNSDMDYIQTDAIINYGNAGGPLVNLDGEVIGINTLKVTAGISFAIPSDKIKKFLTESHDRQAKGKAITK
T1 sequence (Q92743 23-480): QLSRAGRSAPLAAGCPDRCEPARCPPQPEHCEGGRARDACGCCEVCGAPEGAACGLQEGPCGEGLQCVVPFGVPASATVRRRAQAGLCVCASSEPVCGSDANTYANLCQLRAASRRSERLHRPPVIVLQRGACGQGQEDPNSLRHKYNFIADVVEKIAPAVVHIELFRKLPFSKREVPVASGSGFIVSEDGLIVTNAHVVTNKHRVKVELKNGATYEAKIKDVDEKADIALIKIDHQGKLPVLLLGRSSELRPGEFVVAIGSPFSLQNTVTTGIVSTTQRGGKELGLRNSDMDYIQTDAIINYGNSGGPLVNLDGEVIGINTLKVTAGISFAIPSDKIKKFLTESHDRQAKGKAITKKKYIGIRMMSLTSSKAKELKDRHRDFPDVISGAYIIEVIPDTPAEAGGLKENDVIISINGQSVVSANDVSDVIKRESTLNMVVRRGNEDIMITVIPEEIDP

| SMILES | IC50 [1] [nM] | koff [2] [s-1 x10-4] | kon [2] | Kd [2] [nM] |
| --- | --- | --- | --- | --- |
| CC[C@H](C)[C@H](NC(=O)[C@H](CCC(N)=O)NC(=O)[C@H](CCCNC(=N)N)NC(=O)[C@H](CC(C)C)NC(=O)CNC(=O)[C@H](Cc1c[nH]c2ccccc12)NC(=O)CNC(=O)[C@@H]1CSSC[C@@H]2NC(=O)[C@H](CC(=O)O)NC(=O)[C@H](CC(=O)O)NC(=O)[C@H](Cc3c[nH]cn3)NC(=O)[C@H]([C@@H](C)O)NC(=O)[C@H](CCCCN)NC(=O)[C@@H]3CSSC[C@H](NC(=O)[C@H]([C@@H](C)O)NC(=O)[C@H](CCC(N)=O)NC(=O)[C@H](CSSC[C@H](NC(=O)[C@@H](NC(=O)[C@@H]4CCCN4C(=O)[C@H](CC(=O)O)NC(=O)[C@H](C)NC(=O)[C@@H](N)Cc4c[nH]cn4)[C@@H](C)CC)C(=O)NCC(=O)N[C@@H](CO)C(=O)N[C@@H](CCC(N)=O)C(=O)N3)NC(=O)[C@H](Cc3ccccc3)NC(=O)[C@H](Cc3c[nH]c4ccccc34)NC(=O)[C@H](C)NC(=O)CNC(=O)[C@H](CO)NC2=O)C(=O)N[C@@H](Cc2ccc(O)cc2)C(=O)N[C@@H](Cc2ccc(O)cc2)C(=O)N[C@@H](C)C(=O)N[C@@H]([C@@H](C)O)C(=O)N[C@@H](Cc2c[nH]c3ccccc23)C(=O)N[C@@H](CO)C(=O)N1)C(=O)N[C@@H](CC(=O)O)C(N)=O [1A8.L1.1] (H-HADPICGSQCKTHDDCSGAWFCQTCYYATWSCGWGLRQID-NH2; disulfide 6-22, 10-25, 16-32) | 2.3 ± 0.1 | – | – | – |
| CC[C@H](C)[C@H](NC(=O)[C@@H]1CCCN1C(=O)[C@H](CC(=O)O)NC(=O)[C@H](C)NC(=O)[C@@H](N)Cc1c[nH]cn1)C(=O)N[C@H]1CSSC[C@@H]2NC(=O)[C@H](Cc3ccccc3)NC(=O)[C@H](Cc3c[nH]c4ccccc34)NC(=O)[C@H](C)NC(=O)CNC(=O)[C@H](CO)NC(=O)[C@@H]3CSSC[C@@H](C(=O)N[C@@H](CCC(N)=O)C(=O)N[C@@H](Cc4c[nH]c5ccccc45)C(=O)N4CCC[C@H]4C(=O)N4CCC[C@H]4C(=O)N[C@@H](CCCNC(=N)N)C(=O)N[C@@H](Cc4c[nH]cn4)C(=O)N[C@@H](CCCNC(=N)N)C(=O)N[C@@H](CC(=O)O)C(N)=O)NC(=O)[C@H](CO)NC(=O)[C@H](Cc4c[nH]c5ccccc45)NC(=O)[C@H]([C@@H](C)O)NC(=O)[C@H](C)NC(=O)[C@H](Cc4ccc(O)cc4)NC(=O)[C@H](Cc4ccc(O)cc4)NC(=O)[C@H](CSSC[C@H](NC(=O)[C@@H]4CCCN4C(=O)[C@H](CCCCN)NC(=O)[C@H](CC(N)=O)NC1=O)C(=O)N[C@@H](CCCCN)C(=O)N[C@@H]([C@@H](C)O)C(=O)N[C@@H](Cc1c[nH]cn1)C(=O)N[C@@H](CC(=O)O)C(=O)N[C@@H](CC(=O)O)C(=O)N3)NC(=O)[C@H]([C@@H](C)O)NC(=O)[C@H](CCC(N)=O)NC2=O [2D5] (H-HADPICNKPCKTHDDCSGAWFCQTCYYATWSCQWPPRHRD-NH2; disulfide 6-22, 10-25, 16-32) | – | 1.0 ± 0.1 | 10.5 ± 0.9 M-1 s-1 x104 | 0.94 ± 0.12 |
| CC[C@H](C)[C@H](NC(=O)[C@@H]1CCCN1C(=O)[C@H](CC(=O)O)NC(=O)[C@H](C)NC(=O)[C@@H](N)Cc1c[nH]cn1)C(=O)N[C@H]1CSSC[C@@H]2NC(=O)[C@H](Cc3ccccc3)NC(=O)[C@H](Cc3c[nH]c4ccccc34)NC(=O)[C@H](C)NC(=O)CNC(=O)[C@H](CO)NC(=O)[C@@H]3CSSC[C@@H](C(=O)NCC(=O)N4CCC[C@H]4C(=O)NCC(=O)N[C@@H](CCCNC(=N)N)C(=O)N[C@@H](Cc4ccc(O)cc4)C(N)=O)NC(=O)[C@H](CO)NC(=O)[C@H](Cc4c[nH]c5ccccc45)NC(=O)[C@H]([C@@H](C)O)NC(=O)[C@H](C)NC(=O)[C@H](Cc4ccc(O)cc4)NC(=O)[C@H](Cc4ccc(O)cc4)NC(=O)[C@H](CSSC[C@H](NC(=O)[C@@H]4CCCN4C(=O)[C@H](CCCCN)NC(=O)[C@H](CC(N)=O)NC1=O)C(=O)N[C@@H](CCCCN)C(=O)N[C@@H]([C@@H](C)O)C(=O)N[C@@H](Cc1c[nH]cn1)C(=O)N[C@@H](CC(=O)O)C(=O)N[C@@H](CC(=O)O)C(=O)N3)NC(=O)[C@H](C)NC(=O)[C@H](CCC(N)=O)NC2=O [1C10] (H-HADPICNKPCKTHDDCSGAWFCQACYYATWSCGPGRY-NH2; disulfide 6-22, 10-25, 16-32) | – | 4.7 ± 0.1 | 7.7 ± 2.4 M-1 s-1 x104 | 6.5 ± 2.2 |
| CC[C@H](C)[C@H](NC(=O)[C@@H]1CCCN1C(=O)[C@H](CC(=O)O)NC(=O)[C@H](C)NC(=O)[C@@H](N)Cc1c[nH]cn1)C(=O)N[C@H]1CSSC[C@@H]2NC(=O)[C@H](Cc3ccccc3)NC(=O)[C@H](Cc3c[nH]c4ccccc34)NC(=O)[C@H](C)NC(=O)CNC(=O)[C@H](CO)NC(=O)[C@@H]3CSSC[C@@H](C(=O)NCC(=O)N4CCC[C@H]4C(=O)N[C@@H](Cc4ccc(O)cc4)C(=O)N[C@H](C(=O)NCC(N)=O)C(C)C)NC(=O)[C@H](CCCNC(=N)N)NC(=O)[C@H](Cc4c[nH]c5ccccc45)NC(=O)[C@H](CC(N)=O)NC(=O)[C@H](C)NC(=O)[C@H](Cc4ccccc4)NC(=O)[C@H](Cc4ccc(O)cc4)NC(=O)[C@H](CSSC[C@H](NC(=O)[C@@H]4CCCN4C(=O)[C@H](CCCCN)NC(=O)[C@H](CC(N)=O)NC1=O)C(=O)N[C@@H](CCCCN)C(=O)N[C@@H]([C@@H](C)O)C(=O)N[C@@H](Cc1c[nH]cn1)C(=O)N[C@@H](CC(=O)O)C(=O)N[C@@H](CC(=O)O)C(=O)N3)NC(=O)[C@H](C)NC(=O)[C@H](CCC(N)=O)NC2=O [3A7] (H-HADPICNKPCKTHDDCSGAWFCQACYFANWRCGPYVG-NH2; disulfide 6-22, 10-25, 16-32) | – | 2.8 ± 0.2 | 4.5 ± 0.3 M-1 s-1 x104 | 6.2 ± 0.2 |
| CC[C@H](C)[C@H](NC(=O)[C@@H]1CCCN1C(=O)[C@H](CC(=O)O)NC(=O)[C@H](C)NC(=O)[C@@H](N)Cc1c[nH]cn1)C(=O)N[C@H]1CSSC[C@@H]2NC(=O)[C@H](Cc3ccccc3)NC(=O)[C@H](Cc3c[nH]c4ccccc34)NC(=O)[C@H](C)NC(=O)CNC(=O)[C@H](CO)NC(=O)[C@@H]3CSSC[C@@H](C(=O)NCC(=O)N4CCC[C@H]4C(=O)NCC(=O)N[C@@H](Cc4c[nH]c5ccccc45)C(=O)N[C@@H](CCCNC(=N)N)C(N)=O)NC(=O)[C@H](CO)NC(=O)[C@H](Cc4c[nH]c5ccccc45)NC(=O)[C@H]([C@@H](C)O)NC(=O)[C@H](C)NC(=O)[C@H](Cc4ccc(O)cc4)NC(=O)[C@H](Cc4ccc(O)cc4)NC(=O)[C@H](CSSC[C@H](NC(=O)[C@@H]4CCCN4C(=O)[C@H](CCCCN)NC(=O)[C@H](CC(N)=O)NC1=O)C(=O)N[C@@H](CCCCN)C(=O)N[C@@H]([C@@H](C)O)C(=O)N[C@@H](Cc1c[nH]cn1)C(=O)N[C@@H](CC(=O)O)C(=O)N[C@@H](CC(=O)O)C(=O)N3)NC(=O)[C@H](C)NC(=O)[C@H](CCC(N)=O)NC2=O [1A7] (H-HADPICNKPCKTHDDCSGAWFCQACYYATWSCGPGWR-NH2; disulfide 6-22, 10-25, 16-32) | – | 6.5 ± 0.7 | 9.4 ± 1.3 M-1 s-1 x104 | 7 ± 0.5 |
